Experimental data published in PubChem BioAssay AID1259408 (Genetic Toxicology Data Bank (GENE-TOX), 2018).
Activity calls are given as the source filed them. No rule for the calls is given here.

Tested on: GENE-TOX genotoxicity assays, various organisms and cells
Assay: GENE-TOX mutagenicity studies
Conditions: for call: Assay Type: In vivo carcinogenicity studies
[1] = Species/Cell Type: Drosophila melanogaster, Assay Type: Sex-linked recessive lethal gene mutation, Assay Code: SRLT, Evaluation Type: Evaluation A (Pre-1980)
[2] = Species/Cell Type: Mammalian polychromatic erythrocytes, Assay Type: Micronucleus test, chromosome aberrations, Assay Code: MNTT, Evaluation Type: Evaluation B (Post-1980)
[3] = Species/Cell Type: Salmonella typhimurium (one or more of the five standard strains: TA98, TA100, TA1535, TA1537, and TA1538), Assay Type: Histidine reverse gene mutation, Ames assay, Assay Code: SAL-, Evaluation Type: Evaluation A (Pre-1980)
[4] = Species/Cell Type: Salmonella typhimurium (one or more of the five standard strains: TA98, TA100, TA1535, TA1537, and TA1538), Assay Type: Histidine reverse gene mutation, Ames assay, Assay Code: SALT, Evaluation Type: Evaluation A (Pre-1980)
[5] = Species/Cell Type: Nonhuman, Assay Code: CCG+, Evaluation Type: Evaluation A (Pre-1980)
[6] = Species/Cell Type: Salmonella typhimurium (one or more of the five standard strains: TA98, TA100, TA1535, TA1537, and TA1538), Assay Type: Histidine reverse gene mutation, Ames assay, Assay Code: SAL+, Evaluation Type: Evaluation A (Pre-1980)
[7] = Species/Cell Type: Human lymphocytes, Assay Type: Sister-chromatid exchange (SCE) in vitro, Assay Code: SCL+, Evaluation Type: Evaluation B (Post-1980)
[8] = Species/Cell Type: Human, Assay Type: Sister-chromatid exchange (SCE) in vitro, Assay Code: SC1+, Evaluation Type: Evaluation B (Post-1980)
[9] = Species/Cell Type: Salmonella typhimurium (one or more of the five standard strains: TA98, TA100, TA1535, TA1537, and TA1538), Assay Type: Histidine reverse gene mutation, Ames assay, Assay Code: SAL+*, Activation: With metabolic activation, Evaluation Type: Evaluation A (Pre-1980)
[10] = Species/Cell Type: Mouse, Sex: Male, Assay Type: Sperm morphology, Assay Code: SPI-, Evaluation Type: Evaluation A (Pre-1980)
[11] = Species/Cell Type: Human lymphocytes, Assay Type: Sister-chromatid exchange (SCE) in vitro, Assay Code: SCL+D, Dose Response: With dose response, Evaluation Type: Evaluation B (Post-1980)
[12] = Species/Cell Type: Human, Assay Type: Sister-chromatid exchange (SCE) in vitro, Assay Code: SC1+D, Dose Response: With dose response, Evaluation Type: Evaluation B (Post-1980)
[13] = Species/Cell Type: Salmonella typhimurium, Assay Type: Forward and reverse gene mutation, host-mediated assay, Assay Code: HMA+, Evaluation Type: Evaluation A (Pre-1980)
[14] = Species/Cell Type: Nonhuman, Assay Type: Sister-chromatid exchange (SCE) in vitro, Assay Code: SC2+D, Dose Response: With dose response, Evaluation Type: Evaluation B (Post-1980)

SMILES: CN=C(N)N
- mutagenic call (Species/Cell Type: Human diploid fibroblasts, Assay Type: Unscheduled DNA synthesis (UDS) in vitro, DNA effects, Assay Code: UDH-, Evaluation Type: Evaluation A (Pre-1980)): inactive; negative

SMILES: Cc1ccccc1S(N)(=O)=O
- mutagenic call [1]: no conclusion
- mutagenic call [2]: no conclusion
- mutagenic call [3]: inactive; negative

SMILES: COc1ccc(CCC(=O)c2c(O)cc(O[C@@H]3O[C@H](CO)[C@@H](O)[C@H](O)[C@H]3O[C@@H]3O[C@@H](C)[C@H](O)[C@@H](O)[C@H]3O)cc2O)cc1O
- mutagenic call (Species/Cell Type: Mammalian polychromatic erythrocytes, Assay Type: Micronucleus test, chromosome aberrations, Assay Code: MNT+, Evaluation Type: Evaluation B (Post-1980)): active; positive
- mutagenic call (Species/Cell Type: Salmonella typhimurium, Assay Type: Forward and reverse gene mutation, host-mediated assay, Assay Code: HMA-, Evaluation Type: Evaluation A (Pre-1980)): inactive; negative

SMILES: COc1ccc(-c2c(-c3ccc(OC)cc3)c3ccc(OC)cc3c3cc(OC)ccc23)cc1
- mutagenic call [4]: no conclusion

SMILES: CN(C)/C=N/c1nnc(/C=C/c2ccc([N+](=O)[O-])o2)o1
- call [5]: active; positive
- mutagenic call [6]: active; positive

SMILES: ClC(Cl)(Cl)C1CO1 (stereo unspecified)
- mutagenic call [1]: no conclusion
- mutagenic call [7]: active; positive
- mutagenic call [8]: active; positive
- mutagenic call (Species/Cell Type: Saccharomyces cerevisiae, Assay Type: Mitotic recombination or gene conversion, Assay Code: YEH+/-*, Activation: With metabolic activation, Evaluation Type: Evaluation A (Pre-1980)): inactive; positive without activation, negative with activation

SMILES: O=NN1CCCC(Cl)C1 (stereo unspecified)
- mutagenic call (Species/Cell Type: Drosophila melanogaster, Assay Type: Sex-linked recessive lethal gene mutation, Assay Code: SRL+, Evaluation Type: Evaluation A (Pre-1980)): active; positive
- mutagenic call [9]: active; positive

SMILES: COC(F)(F)C(Cl)Cl
- mutagenic call [10]: inactive; negative
- mutagenic call (Species/Cell Type: Nonhuman, Assay Type: Sister-chromatid exchange (SCE) in vitro, Assay Code: SC2T, Evaluation Type: Evaluation B (Post-1980)): no conclusion
- mutagenic call [4]: no conclusion

SMILES: [Cl][Tb]([Cl])[Cl]
- mutagenic call (Species/Cell Type: Bacillus subtilis (H17 vs M45), Assay Type: Rec-assay, spot test, DNA effects (bacterial DNA repair), Assay Code: REW-, Evaluation Type: Evaluation A (Pre-1980)): inactive; negative

SMILES: CN(C)S(=O)(=O)N(SC(F)(Cl)Cl)c1ccccc1
- mutagenic call (Species/Cell Type: Bacillus subtilis (H17 vs M45), Assay Type: Rec-assay, spot test, DNA effects (bacterial DNA repair), Assay Code: REWT, Evaluation Type: Evaluation A (Pre-1980)): no conclusion
- mutagenic call (Species/Cell Type: Saccharomyces cerevisiae, Assay Type: Mitotic recombination or gene conversion, Assay Code: YEC-, Evaluation Type: Evaluation A (Pre-1980)): inactive; negative

SMILES: Cc1cnc2ccccc2c1
- mutagenic call [9]: active; positive

SMILES: Nc1ccc(/C=C/c2ccc([N+](=O)[O-])o2)nn1
- mutagenic call (Species/Cell Type: Glycine max (soybean), Assay Type: Gene mutation, Assay Code: GLM+, Evaluation Type: Evaluation A (Pre-1980)): active; positive
- mutagenic call [7]: active; positive
- mutagenic call (Species/Cell Type: Human lymphocytes, Assay Type: Sister-chromatid exchange (SCE) in vitro, Assay Code: SCL+D, Dose Response: With dose response, Evaluation Type: Evaluation A (Pre-1980)): active; positive
- mutagenic call [8]: active; positive
- mutagenic call (Species/Cell Type: Human, Assay Type: Sister-chromatid exchange (SCE) in vitro, Assay Code: SC1+D, Dose Response: With dose response, Evaluation Type: Evaluation A (Pre-1980)): active; positive
- mutagenic call (Species/Cell Type: Saccharomyces cerevisiae, Assay Type: Forward and reverse gene mutation, mitotic recombination and gene conversion, DNA effects, body fluid assay, Assay Code: BFC+, Evaluation Type: Evaluation A (Pre-1980)): active; positive
- mutagenic call (Species/Cell Type: Saccharomyces cerevisiae, Assay Type: Forward and reverse gene mutation, mitotic recombination and gene conversion, host-mediated assay, Assay Code: HME-, Evaluation Type: Evaluation A (Pre-1980)): inactive; negative
- mutagenic call (Species/Cell Type: Saccharomyces cerevisiae, Assay Type: Mitotic recombination or gene conversion, Assay Code: YEC+, Evaluation Type: Evaluation A (Pre-1980)): active; positive
- mutagenic call (Species/Cell Type: Saccharomyces cerevisiae, Assay Type: Mitotic recombination or gene conversion, Assay Code: YEH+, Evaluation Type: Evaluation A (Pre-1980)): active; positive

SMILES: CN=C(NC#N)NCCSCc1nc[nH]c1C
- mutagenic call (Species/Cell Type: Human lymphocytes, Assay Type: Sister-chromatid exchange (SCE) in vitro, Assay Code: SCLT, Evaluation Type: Evaluation B (Post-1980)): no conclusion
- mutagenic call (Species/Cell Type: Human, Assay Type: Sister-chromatid exchange (SCE) in vitro, Assay Code: SC1T, Evaluation Type: Evaluation B (Post-1980)): no conclusion
- mutagenic call (Species/Cell Type: Human, Sex: Male, Assay Type: Sperm morphology, Assay Code: SPHT, Evaluation Type: Evaluation A (Pre-1980)): no conclusion

SMILES: Cc1occc(=O)c1O
- mutagenic call [11]: active; positive
- mutagenic call [12]: active; positive

SMILES: CN1CCC=C(C(=O)O)C1
- mutagenic call [2]: no conclusion

SMILES: c1ccc2c(c1)ccc1c3ccccc3c(C3CO3)cc21 (stereo unspecified)
- mutagenic call [6]: active; positive

SMILES: Nc1cccc(N)c1
- mutagenic call (Species/Cell Type: Allium cepa, Assay Type: Chromosome aberrations, Assay Code: ALC+, Evaluation Type: Evaluation A (Pre-1980)): active; positive
- mutagenic call (Species/Cell Type: Rodents, Sex: Male, Assay Type: Dominant lethal test, Assay Code: DLTT, Evaluation Type: Evaluation A (Pre-1980)): no conclusion
- mutagenic call [9]: active; positive
- mutagenic call (Species/Cell Type: Syrian hamster embryo (SHE) cells, Assay Type: Cell transformation, clonal assay, Assay Code: CTC+, Evaluation Type: Evaluation A (Pre-1980)): active; positive

SMILES: OC(O)C(Cl)(Cl)Cl
- mutagenic call (Species/Cell Type: Aspergillus nidulans, Assay Type: Aneuploidy, chromosome aberrations, Assay Code: ASN+, Evaluation Type: Evaluation A (Pre-1980)): active; positive
- mutagenic call (Species/Cell Type: Aspergillus nidulans, Assay Type: Mitotic recombination, Assay Code: ASG-, Evaluation Type: Evaluation A (Pre-1980)): inactive; negative
- mutagenic call (Species/Cell Type: Mammalian polychromatic erythrocytes, Assay Type: Micronucleus test, chromosome aberrations, Assay Code: MNTT, Evaluation Type: Evaluation A (Pre-1980)): no conclusion
- mutagenic call [10]: inactive; negative
- mutagenic call (Species/Cell Type: Neurospora crassa, Assay Type: Aneuploidy, chromosome aberrations, Assay Code: NEN-, Evaluation Type: Evaluation A (Pre-1980)): inactive; negative
- call (Species/Cell Type: Nonhuman, Assay Code: CCGT, Evaluation Type: Evaluation A (Pre-1980)): no conclusion
- mutagenic call [6]: active; positive

SMILES: CC(=O)OCN(C)N=O
- mutagenic call [13]: active; positive

SMILES: O=P(N1CC1)(N1CC1)N1CCN(P(=O)(N2CC2)N2CC2)CC1
- mutagenic call [11]: active; positive
- mutagenic call [12]: active; positive
- mutagenic call [14]: active; positive

SMILES: Cc1cc2c(C(C)C)c(O)c(O)c(C=O)c2c(O)c1-c1c(C)cc2c(C(C)C)c(O)c(O)c(C=O)c2c1O
- mutagenic call [7]: active; positive
- mutagenic call [8]: active; positive
- mutagenic call (Species/Cell Type: Human, Sex: Male, Assay Type: Sperm morphology, Assay Code: SPH+, Evaluation Type: Evaluation A (Pre-1980)): active; positive
- mutagenic call (Species/Cell Type: Mouse, Sex: Male, Assay Type: Sperm morphology, Assay Code: SPI+, Evaluation Type: Evaluation A (Pre-1980)): active; positive
- mutagenic call (Species/Cell Type: Rabbit, Sex: Male, Assay Type: Sperm morphology, Assay Code: SPRT, Evaluation Type: Evaluation A (Pre-1980)): no conclusion
- mutagenic call (Species/Cell Type: Rat, Sex: Male, Assay Type: Sperm morphology, Assay Code: SPA+, Evaluation Type: Evaluation A (Pre-1980)): active; positive

SMILES: O=S1(=O)OCCO1
- mutagenic call [6]: active; positive
- mutagenic call [13]: active; positive

SMILES: CC(=O)Nc1nc(-c2ccc([N+](=O)[O-])o2)cs1
- mutagenic call (Species/Cell Type: Bacillus subtilis (H17 vs M45), Assay Type: Rec-assay, spot test, DNA effects (bacterial DNA repair), Assay Code: REW+, Evaluation Type: Evaluation A (Pre-1980)): active; positive
- mutagenic call (Species/Cell Type: Escherichia coli WP2, Assay Type: Tryptophan reverse gene mutation, Assay Code: WP2+, Evaluation Type: Evaluation A (Pre-1980)): active; positive
- mutagenic call (Species/Cell Type: Escherichia coli WP2 UVRA, Assay Type: Tryptophan reverse gene mutation, Assay Code: WPU-, Evaluation Type: Evaluation A (Pre-1980)): inactive; negative
- call [5]: active; positive
- mutagenic call [14]: active; positive
- mutagenic call [6]: active; positive

SMILES: CC(=O)ON(C(C)=O)c1ccc(-c2ccccc2)cc1
- mutagenic call (Species/Cell Type: Human diploid fibroblasts, Assay Type: Unscheduled DNA synthesis (UDS) in vitro, DNA effects, Assay Code: UDH+, Evaluation Type: Evaluation A (Pre-1980)): active; positive
- mutagenic call (Species/Cell Type: Nonhuman, Assay Type: Sister-chromatid exchange (SCE) in vitro, Assay Code: SC2+, Evaluation Type: Evaluation B (Post-1980)): active; positive

SMILES: ClC1=CC(c2cc(Cl)ccc2Cl)=C(Cl)[C@H]2O[C@@H]12
- mutagenic call [4]: no conclusion

SMILES: Cc1cc(=O)n(-c2ccccc2)n1C
- mutagenic call [3]: inactive; negative
